Tests used:
[1] = test system: Cultured airway epithelia; test: Cl− secretion by cultured airway epithelia, UTP compared with U2P4 (Example 2); type: cell-based; settings: for Mean Cl− secretion Induced: 10^−4 M on mucosal surface, tissues pretreated with amiloride (10^−4 M); for Effectiveness (efficacy) on Cl− secretion, UTP compared with U2P4: 10^−4 M, the highest concentration tested, amiloride (10^−4 M) pretreated
Protocol: (§1) Normal airway cells were cultured on permeable supports and Cl^− secretion assayed as previously described in M. J. Stutts, et al., Am. J. Physiol. 267, C1442-C1451 (1994). Cl^− secretion was measured after administration of the dinucleotide A2P4 (Sigma Chemicals, St. Louis, Mo.). Amiloride was added to block airway epithelial sodium absorption.
Studies were carried out according to the method described in Example 1 to compare the effectiveness (efficacy) of UTP and U2P4. Cultured airway epithelia were exposed to a concentration of from 10^−9 M to […] of either UTP or U2P4 in 6 ml of solution circulating over the mucosal surface. The tissues were pretreated with amiloride (10^−4 M) to block Na^+ absorption. Under these conditions, the current generated by the tissues is due to Cl^− secretion. UTP and U2P4 induced a similar pattern of Cl^− secretion. At 10^−4 M, the highest concentration tested, UTP and U2P4 were equieffective (equiefficacious).

airway epithelia = test: Cl− secretion by cultured normal airway cells on permeable supports (Example 1); type: cell-based
Protocol: as §1
Moreover, the administration of A2P4 had no effect on Cl^− secretion in airway epithelia pre-stimulated with UTP, which is known to activate non-CFTR Cl^− channels. […] Stimulation of this receptor is thus a therapeutic strategy for certain lung diseases, including cystic fibrosis.

Row | Compound | Mean Cl− secretion Induced [1] | Effectiveness (efficacy) on Cl− secretion, UTP compared with U2P4 [1] | Effect on Cl− secretion (airway epithelia; airway epithelia pre-stimulated with UTP) | Effect on Cl− secretion (airway epithelia; exposed to the basolateral surface of the airway epithelial preparation, amiloride added) | Effect on Cl− secretion (airway epithelia; luminal surface, airway epithelia treated with forskolin, amiloride added)
1 | O=c1ccn([C@@H]2O[C@H](COP(=O)(O)OP(=O)(O)OP(=O)(O)OP(=O)(O)OC[C@H]3O[C@@H](n4ccc(=O)[nH]c4=O)[C@H](O)[C@@H]3O)[C@@H](O)[C@H]2O)c(=O)[nH]1 [U2P4, UppppU] | 43.8 μA/cm^2 | equieffective | – | – | –
2 | Nc1ncnc2c1ncn2[C@@H]1O[C@H](COP(=O)(O)OP(=O)(O)OP(=O)(O)OP(=O)(O)OC[C@H]2O[C@@H](n3cnc4c(N)ncnc43)[C@H](O)[C@@H]2O)[C@@H](O)[C@H]1O [A2P4] | – | – | no effect | little effect | stimulated additional Cl^− secretion
3 | O=c1ccn([C@@H]2O[C@H](COP(=O)(O)OP(=O)(O)OP(=O)(O)O)[C@@H](O)[C@H]2O)c(=O)[nH]1 [UTP, reference compound] | 45.3 μA/cm^2 | equieffective | – | – | –
